Reference: patent US20210368837A1, “BOEHMERIA NIVEA COMPOSITIONS AND METHODS FOR TASTE MODULATION” (INTERNATIONAL FLAVORS & FRAGRANCES INC., priority 2018, published 2021)

Key:
[1] = Descriptive sensory evaluation of traumatic acid and 3-dodecenedioic acid in sugar water; settings: 5 ppm in sugar water (4% sucrose), summary statement
Method: Sugar water (4% sucrose in drinking water) was prepared and used as a base solution. Traumatic acid (purchased from Cayman Chemical Company) and 3-dodecenedioic acid (isolated from a B. nivea extract) were added to the sugar water and taste descriptive sensory evaluations were performed (Table 2).

[2] = Comparison of sweetness and mouthfeel enhancement and off-flavor masking of sebacic acid with analogs; settings: at 2 ppm; analogs: adipic, pimelic, suberic, undecanedioic, dodecanedioic, 1,11-undecanedicarboxylic, tetradecanedioic, hexadecanedioic acid
[3] = Descriptive sensory evaluation of sebacic acid in different applications
Method: Descriptive sensory evaluations were carried out using different amounts of sebacic acid in different applications.

[4] = Descriptive sensory evaluation of traumatic acid in different applications
Method: Descriptive sensory evaluations were carried out using different amounts of traumatic acid in different applications.

O=C(O)CC=CCCCCCCCC(=O)O [3-Dodecenedioic acid, 3-dodecenedioic acid]
Enhancement of sweetness and mouthfeel of sugar water [1]: enhanced the sweetness and mouthfeel of sugar water | Sweetness and mouthfeel enhancement as well as off-flavor masking, compared among dicarboxylic acids [2]: the strongest and the longest-lasting effect

O=C(O)CCCCCCCCC(=O)O [Sebacic Acid, decanedioic acid]
Taste Evaluation ([3]; sebacic acid 40 ppm in 3% Sugar + 0.05% Citric Acid Water Solution): Fatty and oily | Taste Evaluation ([3]; sebacic acid 40 ppm in Water): Fatty and oily

O=C(O)C=CCCCCCCCCC(=O)O [Traumatic acid, 2-dodecenedioic acid]
Enhancement of sweetness and mouthfeel of sugar water [1]: enhanced the sweetness and mouthfeel of sugar water | Taste Evaluation ([4]; traumatic acid 40 ppm in 3% Sugar + 0.05% Citric Acid Water Solution): Fatty and oily | Taste Evaluation ([4]; traumatic acid 40 ppm in Water): Fatty and oily | Sweetness and mouthfeel enhancement as well as off-flavor masking, compared among dicarboxylic acids [2]: the strongest and the longest-lasting effect
